Reference: patent US20260373164A1, “4(RS)-4-F4-NEUROPROSTANE DERIVATIVES (4-F4T-NEUROP) AND THEIR USE IN TREATING VENTILATOR INDUCED DIAPHRAGMATIC DYSFUNCTION AND OTHER DISEASES” (INSTITUT NATIONAL DE LA SANTÉ ET DE LA RECHERCHE MÉDICALE, priority 2022, published 2026)
Entries after “also recorded” stand apart in the source; their conditions may differ.

Assays:
mouse diaphragm (VIDD) = test: Diaphragm force-frequency relationship after 6 h of mechanical ventilation (murine model of VIDD); format: in vivo, C57/BL6 mice; settings: for prevention of VIDD in murine model: general statement; for prevention of VIDD in murine model / protection against mechanical ventilation (force-frequency relationship): mice; for protection against mechanical ventilation (force-frequency relationship): IV
Method: 35 adult male mice (10 to 12 weeks old, 25 to 30 g) C57/BL6 mice were separated into five groups. Three groups were intubated with a 22-gauge angio-catheter and mechanically ventilated for 6 consecutive hours using a volume-driven small-animal ventilator (Minivent®, Harvard Apparatus, Saint-Laurent, Canada). Tidal volume was established at […] body weight with a respiratory rate of 150 breaths/min, a positive end-expiratory pressure (PEEP) level from 2 to 4 cm H2O and a fraction of inspired oxygen of 0.21. Non-spontaneous ventilation was defined as a lack of diaphragm contractile activity attested by repetitive stereotypical deflections observed in the airway pressure curve.
The mice were divided into two groups. The first group (control) received methanol, at the volume corresponding to the equivalent volume brought with 4F4t-NeuroP, intravenously (IV) infused over a 5-minute period, 20 minutes before start of MV. The second group of mice received 4F4t-NeuroP intravenously (IV) infused over a 5-minute period, 20 minutes before start of MV. The two groups were intubated and treated in an identical manner (see Matecki et al., 2016 for details^15).
At the end of the protocol of MV, the entire diaphragm was surgically excised and mice were euthanized, by exsanguination. Isometric contractile properties were assessed as described previously in detail (Matecki et al., 2016^15). The excised diaphragm strip was mounted into jacketed tissue bath chambers filled with equilibrated and oxygenated Krebs solution. The muscles were supra-maximally stimulated using square wave pulses (Model S48; Grass Instruments, West Warwick, RI). The force-frequency relationship was determined by sequentially stimulating the muscles for 600 ms at 10, 20, 30, 50, 60, 80, 100 and 120 Hz with 1 minute between each stimulation train. After measurement of contractile properties, muscles were measured at Lo (the length at which the muscle produced maximal isometric tension), dried and weighted. For comparative purposes, diaphragmatic force production was normalized for total muscle strip cross-sectional area and expressed in N·cm^−2. The total muscle strip cross-sectional area was determined by dividing muscle weight by its length and tissue density (1.056 g/cm^3).
Mice were anesthetized and mechanically ventilated for 6 hours. Mice were randomized to receive or not at the beginning of the ventilation a single IV injection of 4F4t-NeuroP at concentrations ranging from 0.01-100 μM to build a dose-response curve of the force-frequency relationship in order to define the optimal concentration.
As for 4F4t-NeuroP, VB558 was injected intravenously into the mouse at a concentration of 1 and 10 μM before ventilating the mice for 6 hours.

calstabin1/RyR1 complex = test: RyR1 biochemical analysis (immunoprecipitation): oxidation, phosphorylation, calstabin1 interaction; format: in vivo, mouse; settings: for RyR function: associated with VIDD prevention in the murine and porcine models; for RyR oxidation, and phosphorylation: statement in discussion for both compounds
Method: Muscle biopsies were homogenized in 150 μl of buffer containing 5% SDS, 5% beta-mercaptoethanol, 10% glycerol, 10 mM EDTA and 50 mM Tris/HCl buffer (pH=8.0). Each sample was immediately denatured at 90 °C for 4 min. After centrifugation (5000 rpm) at 4 °C, supernatant protein concentrations were measured in duplicate using the BCA protein assay, equilibrated at the same concentration by dilution with loading buffer and aliquoted at 2 μg/μl. RyR1 was immunoprecipitated from 250 μg of homogenate using an anti-RyR antibody (4 μg RyR1-1327) in 0.5 ml of a modified RIPA buffer (50 mM Tris-HCl pH 7.4, 0.9% NaCl, 5.0 mM NaF, 1.0 mM Na3VO4, 1% Triton-X100, and protease inhibitors) for 1 hr at 4 °C. The immune complexes were incubated with protein A Sepharose beads (Amersham Pharmacia) at 4 °C for 1 hr and the beads were washed three times with buffer. Proteins were separated on SDS-PAGE gels (4-20% gradient) and transferred onto nitrocellulose membranes for 2 hr at 200 mA (SemiDry transfer blot, Bio-Rad). To prevent non-specific antibody binding, the membranes were incubated with blocking solution (LICOR Biosciences) and washed with Tris-buffered saline with 0.1% Tween-20.
Blots were respectively incubated with primary antibody to RyR1 (RyR1-1327, an affinity-purified rabbit polyclonal antibody raised against a KLH-conjugated peptide with the amino acid sequence CAEPDTDYENLRRS, corresponding to residues 1327-1339 of mouse skeletal RyR1, with an additional cysteine residue added to the amino terminus), and affinity purified with the unconjugated peptide. The inventors also used antibody to calstabin1 (1:2500 in blocking buffer, LICOR Biosciences); phospho-epitope-specific antibody to human RyR2 phosphorylated on Ser-2808 (1:5,000), which detects PKA-phosphorylated mouse RyR1 (on Ser-2844) and RyR2 (on Ser-2808); antibody to S-nitrosylated cysteine residues (1:1000, Sigma). To determine RyR1 oxidation, the immunoprecipitate was treated with 2, 4-dinitrophenyl hydrazine, and the derivatized carbonyls were detected using an OxyBlot protein oxidation detection Kit (catalog S7150, Chemicon International Inc.). After three washes, membranes were incubated with infrared-labeled secondary antibodies. Control samples were analyzed on each gel for normalization and total levels of RyR1 were not different between groups.
Diaphragm samples from the above experiments were frozen and solubilized to further investigate the biochemical properties of the RyR1 macromolecular complex.

| Structure (SMILES) | prevention of VIDD in murine model (mouse diaphragm (VIDD)) | prevention of VIDD / diaphragm weakness (force-frequency relationship) (mouse diaphragm (VIDD); single IV injection of 4F4t-NeuroP 0.01-100 μM, 6 h MV) | concentration giving maximal effect in VIDD prevention (mouse diaphragm (VIDD); single IV injection, dose response 0.01-100 μM, 6 h MV, maximal force at 120 Hz) | RyR function (calstabin1/RyR1 complex) | biochemical signature of leaky RyR1 (oxidation, ser2844 phosphorylation, calstabin1 depletion) (calstabin1/RyR1 complex; mouse diaphragm after 6 h MV, 4F4t-NeuroP IV) | calstabin1/RyR1 complex (calstabin1/RyR1 complex; mouse diaphragm after 6 h MV, calstabin1/RyR1 interaction) | RyR oxidation, and phosphorylation (calstabin1/RyR1 complex) | protection against mechanical ventilation (force-frequency relationship) (mouse diaphragm (VIDD); VB558 1 μM, 6 h MV) | protection against mechanical ventilation (force-frequency relationship) (mouse diaphragm (VIDD); VB558 10 μM, 6 h MV) |
| --- | --- | --- | --- | --- | --- | --- | --- | --- | --- |
| CC/C=C\C/C=C\C/C=C\C[C@@H]1[C@H](/C=C/C(O)CCC(=O)O)[C@@H](O)C[C@H]1O (mixture of isomers) [Compound 4F4t-NeuroP, 4(RS)-4-F4t-Neuroprostane] | prevent with a high efficiency VIDD | prevents diaphragm weakness induced after 6 h of mechanical ventilation; also recorded: full prevention of VIDD | about 0.3 μM | normalization of RyR function | this post-translational remodeling was prevented; also recorded: fully prevented | Stabilizes the Complex Calstabin1/RyR1 | prevent RyR oxidation, and phosphorylation |  |  |
| CC/C=C\C[C@@H]1[C@H](/C=C/C(O)CCC(=O)O)[C@@H](O)C[C@H]1O (mixture of isomers) [VB558, (E)-6-((1S,2R,3R,5S)-3,5-dihydroxy-2-((Z)-pent-2-en-1-yl)cyclopentyl)-4-hydroxyhex-5-enoic Acid] | prevents VIDD; also recorded: prevent with a high efficiency VIDD |  |  | normalization of RyR function |  |  | prevent RyR oxidation, and phosphorylation | significant protection against mechanical ventilation in a range similar to that was obtained with 4F4t-NeuroP | significant protection against mechanical ventilation in a range similar to that was obtained with 4F4t-NeuroP |
